Patent publication US7759345B2, “Antitumoral derivatives of ET-743” (priority 2001, dated 2010)

Columns and labels:
A-498 = experiment: Inhibition of cells growth by colorimetric assay (SRB), A-498; assay type: cell-based
Description: (§1) 2°.—Inhibition of Cells Growth by Colorimetric Assay.
(§2) A colorimetric type of assay, using sulforhodamine B (SRB) reaction has been adapted for a quantitative measurement of cell growth and viability [following the technique described by Philip Skehan, et al. (1990), New colorimetric cytotoxicity assay for anticancer drug screening, J. Natl. Cancer Inst., 82:1107-1112]
(§3) This form of the assay employs 96 well cell culture microplates of 9 mm diameter (Faircloth, 1988; Mosmann, 1983). Most of the cell lines are obtained from American Type Culture Collection (ATCC) derived from different human cancer types.
(§4) Cells are maintained in RPMI 1640 10% FBS, supplemented with 0.1 g/l penicillin and 0.1 g/l streptomycin sulfate and then incubated at 37° C., 5% CO2 and 98% humidity. For the experiments, cells were harvested from subconfluent cultures using trypsin and resuspended in fresh medium before plating.
(§5) Cells are seeded in 96 well microtiter plates, at 5×10^3 cells per well in aliquots of 195 μl medium, and they are allowed to attach to the plate surface by growing in drug free medium for 18 hours. Afterward, samples are added in aliquots of 5 μl in a ranging from 10 to 10^−8 μg/ml, dissolved in DMSO/EtOH/PBS (0.5:0.5:99). After 48 hours exposure, the antitumor effect are measured by the SRB methodology: cells are fixed by adding 50 μl of cold 50% (wt/vol) trichloroacetic acid (TCA) and incubating for 60 minutes at 4° C. Plates are washed with deionized water and dried. One hundred μl of SRB solution (0.4% wt/vol in 1% acetic acid) is added to each microtiter well and incubated for 10 minutes at room temperature. Unbound SRB is removed by washing with 1% acetic acid. Plates are air dried and bound stain is solubilized with Tris buffer. Optical densities are read on a automated spectrophotometric plate reader at a single wavelength of 490 nm.
(§6) The values for mean+/−SD of data from triplicate wells are calculated. Some parameters for cellular responses can be calculated: GI=growth inhibition, TGI=total growth inhibition (cytostatic effect) and LC=cell killing (cytotoxic effect).
(§7) Obtained results may predict the usefulness of a certain drug as a potential cancer treatment. For this technique, compounds which show GI50 values smaller than 10 μg/ml are selected to continue with further studies. GI50's data allow to predict that not only could a drug be cystostatic, but also it could have a potential in terms of tumor reduction.

MDA-MB-231 = experiment: Inhibition of cells growth by colorimetric assay (SRB), MDA-MB-231; assay type: cell-based
Description: as §1, §2, §3, §4, §5, §6, §7

MCF-7 = experiment: Inhibition of cells growth by colorimetric assay (SRB), MCF-7; assay type: cell-based
Description: as §1, §2, §3, §4, §5, §6, §7

tumor cell culture = experiment: Bioassays for antitumor screening, cell line not given; assay type: cell-based; conditions: cell line not stated
Text: Bioassays for Antitumor Screening
The finality of these assays is to interrupt the growth of a “in vitro” tumor cell culture by means a continued exhibition of the cells to the sample to be testing.

DU-145 = experiment: Inhibition of cells growth by colorimetric assay (SRB), DU-145; assay type: cell-based
Summary of the method: (§8)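 First, cells were plated at 5×10^3 per well and left 18 h to attach. Next, compound was added over 10 to 10^−8 μg/ml for 48 h. Finally, cells were TCA-fixed, SRB-stained and absorbance read at 490 nm.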

SW620 = experiment: Inhibition of cells growth by colorimetric assay (SRB), SW620; assay type: cell-based
Description: as §1, §2, §3, §4, §5, §6, §7

SK-MEL-28 = experiment: Inhibition of cells growth by colorimetric assay (SRB), SK-MEL-28; assay type: cell-based
Summary of the method: as §8

HT-29 = experiment: Inhibition of cells growth by colorimetric assay (SRB), HT-29; assay type: cell-based
Summary of the method: as §8

A-549 = experiment: Inhibition of cells growth by colorimetric assay (SRB), A-549; assay type: cell-based
Summary of the method: as §8

Description for Heart: (§9) Toxicity was asssessed by the methods reported in Toxicology in Vitro, 15 (2001) 571-577, J. Luber Narod et al.: “Evaluation of the use of in vitro methodolodies as tools for screening new compounds for potential in vivo toxicity”.
Description for Kidney: as §9
Description for Liver: as §9
Description for Myelo: as §9
Description for Skeletal: as §9

COc1cc2c(cc1OC(=O)OC(C)(C)C)CCN[C@]21CS[C@@H]2c3c(OC(=O)OC(C)(C)C)c(C)c4c(c3[C@H](COC1=O)N1C2[C@H]2c3c(cc(C)c(OC)c3OC(=O)OC(C)(C)C)C[C@@H]([C@@H]1O)N2C)OCO4 (stereo partly drawn) [Compound 174]
LC50 (A-498; Homo sapiens, A498, 48 h, read-out: A-498 LC50): 9.8 nM | GI50 (A-498; Homo sapiens, A498, SRB assay, 48 hours exposure, read-out: A-498 GI50): 1.96 nM | A-498 TGI (A-498; SRB assay, 48 hours exposure): 3.92E-09 | Toxicity Data Skeletal (Skeletal): 9.80E-07 | CC50 (MDA-MB-231; Homo sapiens, MDA-MB-231, 48 h, read-out: MB-231 LC50): 98 nM | GI50 (MDA-MB-231; Homo sapiens, MDA-MB-231, SRB assay, 48 hours exposure, read-out: MB-231 GI50): 0.98 nM | MB-231 TGI (MDA-MB-231; SRB assay, 48 hours exposure): 5.88E-09 | GI50 (MCF-7; Homo sapiens, MCF7, 48 h, read-out: MCF GI50): 3.92 nM | CC50 (MCF-7; Homo sapiens, MCF7, 48 h, read-out: MCF LC50): 88.2 nM | MCF TGI (MCF-7; SRB assay, 48 hours exposure): 1.96E-08 | antitumor activity (in words) (tumor cell culture): very active (E-10) | GI50 (DU-145; Homo sapiens, DU-145, 48 h, SRB assay, 48 hours exposure, read-out: DU-145 GI50): 0.294 nM | CC50 (DU-145; Homo sapiens, DU-145, 48 h, read-out: DU-145 LC50, SRB assay, 48 hours exposure): 3.92 nM | DU-145 TGI (DU-145; SRB assay, 48 hours exposure): 9.80E-10 | Toxicity Data Myelo (Myelo): 7.27E-08 | Toxicity Data Kidney (Kidney): 1.24E-08 | LC50 (SW620; Homo sapiens, SW-620, 48 h, read-out: SW-620 LC50): 686 nM | GI50 (SW620; Homo sapiens, SW-620, SRB assay, 48 hours exposure, read-out: SW-620 GI50): 0.98 nM | SW-620 TGI (SW620; SRB assay, 48 hours exposure): 6.86E-09 | Toxicity Data Liver (Liver): 1.34E-08 | GI50 (SK-MEL-28; Homo sapiens, SK-MEL-28, 48 h, SRB assay, 48 hours exposure, read-out: MEL-28 GI50): 1.96 nM | CC50 (SK-MEL-28; Homo sapiens, SK-MEL-28, 48 h, read-out: MEL-28 LC50, SRB assay, 48 hours exposure): 9.8 nM | MEL-28 TGI (SK-MEL-28; SRB assay, 48 hours exposure): 4.90E-09 | GI50 (HT-29; Homo sapiens, HT-29, 48 h, SRB assay, 48 hours exposure, read-out: HT-29 GI50): 1.96 nM | LC50 (concentration for 50% cell killing) (HT-29; Homo sapiens, HT-29, 48 h, read-out: HT-29 LC50, SRB assay, 48 hours exposure): 9.8 nM | HT-29 TGI (HT-29; SRB assay, 48 hours exposure): 6.86E-09 | Toxicity Data Heart (Heart): 2.76E-08 | GI50 (A-549; Homo sapiens, A549, 48 h, SRB assay, 48 hours exposure, read-out: A-549 GI50): 0.98 nM | LC50 (concentration for 50% cell killing) (A-549; Homo sapiens, A549, 48 h, read-out: A-549 LC50, SRB assay, 48 hours exposure): 9.8 nM | A-549 TGI (A-549; SRB assay, 48 hours exposure): 2.94E-09
